Test results published in ChEMBL document CHEMBL1144292, “Estrogen receptor ligands. Part 11: Synthesis and activity of isochromans and isothiochromans” (Bioorg Med Chem Lett, 2005).

Legend:
Estrogen receptor [1] = target: Estrogen receptor (Homo sapiens, UniProt Q92731+P03372); settings: mcf-7
Description: Inhibition of MCF-7 cell proliferation

Estrogen receptor beta = Estrogen receptor beta (Homo sapiens, UniProt Q92731)
Description: Binding affinity for human estrogen receptor beta

Estrogen receptor [2] = target: T1, Estrogen receptor (Homo sapiens, UniProt P03372)
T1 sequence (P03372 whole entry): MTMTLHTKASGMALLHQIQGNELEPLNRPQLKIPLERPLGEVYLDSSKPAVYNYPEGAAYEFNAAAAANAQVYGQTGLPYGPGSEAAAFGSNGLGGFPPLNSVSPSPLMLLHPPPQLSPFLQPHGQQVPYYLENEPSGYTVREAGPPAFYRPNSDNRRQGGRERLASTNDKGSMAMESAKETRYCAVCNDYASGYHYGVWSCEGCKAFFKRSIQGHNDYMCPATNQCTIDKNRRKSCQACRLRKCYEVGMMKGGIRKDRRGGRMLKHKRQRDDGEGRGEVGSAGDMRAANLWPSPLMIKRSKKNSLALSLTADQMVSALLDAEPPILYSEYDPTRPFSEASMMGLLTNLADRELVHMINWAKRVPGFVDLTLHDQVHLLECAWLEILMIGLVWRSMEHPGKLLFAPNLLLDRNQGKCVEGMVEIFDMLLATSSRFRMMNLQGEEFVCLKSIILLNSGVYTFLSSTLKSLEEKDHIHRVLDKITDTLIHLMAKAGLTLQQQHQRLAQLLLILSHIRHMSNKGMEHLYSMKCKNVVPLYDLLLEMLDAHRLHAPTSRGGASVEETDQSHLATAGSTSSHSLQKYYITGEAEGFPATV
Description: Binding affinity for human estrogen receptor alpha

Chain of Estrogen receptor beta (Q92731 whole entry): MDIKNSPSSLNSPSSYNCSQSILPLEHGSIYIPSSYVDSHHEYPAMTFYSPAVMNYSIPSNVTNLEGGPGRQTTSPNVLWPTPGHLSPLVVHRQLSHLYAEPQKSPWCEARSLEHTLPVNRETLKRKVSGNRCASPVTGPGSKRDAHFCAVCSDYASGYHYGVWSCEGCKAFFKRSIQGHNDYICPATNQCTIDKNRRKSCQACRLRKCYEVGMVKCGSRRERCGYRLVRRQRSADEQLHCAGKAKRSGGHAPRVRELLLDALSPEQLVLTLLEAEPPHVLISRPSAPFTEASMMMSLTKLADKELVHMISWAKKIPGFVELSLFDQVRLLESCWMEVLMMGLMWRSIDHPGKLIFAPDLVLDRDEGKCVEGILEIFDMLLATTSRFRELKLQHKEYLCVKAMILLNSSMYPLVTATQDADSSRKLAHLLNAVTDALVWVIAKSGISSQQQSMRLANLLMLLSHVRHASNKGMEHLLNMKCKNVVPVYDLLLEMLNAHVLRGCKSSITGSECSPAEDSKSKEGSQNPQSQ

Row | SMILES | IC50 (Estrogen receptor [1]) [nM] | IC50 (Estrogen receptor beta) [nM] | IC50 (Estrogen receptor [2]) [nM]
1 | COc1ccc2c(c1)CO[C@H](c1ccccc1)[C@@H]2c1ccc(OCCN2CCCC2)cc1 | 57 | 315 | 39
2 | COc1ccc2c(c1)CS[C@H](c1ccccc1)[C@@H]2c1ccc(OCCN2CCCC2)cc1 | 164 | 110 | 13
3 | Oc1ccc2c(c1)CO[C@H](c1ccccc1)[C@@H]2c1ccc(OCCN2CCCC2)cc1 | 0.15 | 3.6 | 2.4
4 | Oc1ccc2c(c1)CS[C@H](c1ccccc1)[C@@H]2c1ccc(OCCN2CCCC2)cc1 | 0.25 | 2.1 | 0.6
